Assays:
[1] = molecular target: T1, Hsc70 (Homo sapiens, UniProt P11142); test: ATPase activity of Hsc70 (malachite green); assay type: biochemical; details: Hsc70 2 μM, peptide 200 μM, 1 mM ATP, HMK buffer, 1 mM DTT, 37 °C, 1 h, malachite green 620 nm; SD, three independent experiments
T1 construct: 6X His-tag (TEV-cleavable) (cleaved yes); made in house; host or cells: E. coli Rosetta (DE3)
Excerpt: Hsp70s consist of an nucleotide-binding domain (NBD) and a substrate-binding domain (SBD). Hsc70 works using an allosteric mechanism whereby substrate binding at the SBD stimulates the ATP hydrolysis rate at the nucleotide-binding domain. The basal ATPase rate of Hsp70 is low, usually about 0.05 ± 0.009 mol Pi/mol protein, and increases when it is stimulated by binding of a peptide to the canonical site in the SBD. We measured the ability of SNAP-25 peptides SNNP and SNCP to stimulate the ATPase rate of Hsc70 (Fig. 5A). SNNP and SNCP binding cause a 1.5-fold increase of the Hsc70 ATPase rate over basal (observed rates upon addition of SNNP and SNCP were 0.089 ± 0.008 and 0.080 ± 0.005, respectively). In order to confirm that peptides are indeed binding at the canonical binding site of Hsc70, we used the V438F mutant that blocks the binding site ([37]). […] The addition of CSPαJ stimulates the ATPase activity of Hsc70 ∼4-fold with and without peptides.
Figure 5 SNN and SNC peptides interact with the canonical substrate-binding site of Hsc70.A, ATPase activity of Hsc70 (2 μM) in the absence (gray) and presence of 200 μM SNNP (orange) and SNCP (green) peptides. Error bars represent the SDs from three independent experiments. B, binding of SNAP-25 (black), SNNP (orange), LoopP (blue), and SNCP (green) peptides to Hsc70 followed by competition for FITC-p5 peptide using fluorescence anisotropy. Increasing concentrations of the competitors were added to a complex of Hsc70 (5 μM) and FITC-p5 peptide (50 nM). Error bars represent SDs from three independent experiments. […]
We performed ATPase assays to observe the activity of Hsc70 in the presence of SNAP25 peptides. […] Absorbance readings were taken at 620 nm using a BioTek plate reader. […]
(C) ATPase activity of Hsc70 (at 2 μM) in the absence (grey) and presence of 200 μM SNNP (orange) and L(Loop)-SNCP (green) peptides, and in the absence and presence of CSPa-J and CSPa-J/Apg2. The statistical significance was calculated using one-way ANOVA test with Sidak’s multiple comparison and the Hsc70 ATPase activity […]

[2] = molecular target: T1, Hsc70; test: Methyl-TROSY NMR of Ile-13CH3-labeled Hsc70 with peptides; assay type: binding; details: Ile-13CH3 Hsc70 40 μM, 25 °C, 600 MHz, pD 7.4
Procedure: Figure 5 SNN and SNC peptides interact with the canonical substrate-binding site of Hsc70.A, ATPase activity of Hsc70 (2 μM) in the absence (gray) and presence of 200 μM SNNP (orange) and SNCP (green) peptides. Error bars represent the SDs from three independent experiments. B, binding of SNAP-25 (black), SNNP (orange), LoopP (blue), and SNCP (green) peptides to Hsc70 followed by competition for FITC-p5 peptide using fluorescence anisotropy. Increasing concentrations of the competitors were added to a complex of Hsc70 (5 μM) and FITC-p5 peptide (50 nM). Error bars represent SDs from three independent experiments. C, structure of the canonical substrate-binding site of human HspA1 (PDB 4po2) illustrating the location of Hsc70 residues Ile 403 and Ile 440 in red and green spheres, respectively (N.B., Hsc70 and HspA1 share […] sequence identity). The SBD is shown in gray, bound substrate in cyan sticks, and the side chain of the residue occupying the 0th position in the chaperone (“anchor residue”) in orange ball and sticks. For better visualization of the substrate-binding site, residues 512 to 613, 405 to 408, and 431 were removed in this illustration of the structure. D, the Ile region of the ^1H-^13 C HMQC spectra of Ile-^13CH3-labeled Hsc70 (40 μM) in the absence (black) and in the presence of unlabeled SNNP (orange) and SNCP (green) peptides (200 μM).
To directly observe binding of SNAP-25 peptides to Hsc70, we used methyl-TROSY NMR. We recorded the spectra of complexes between peptides containing the Hsc70 binding sites of SNAP-25 and Hsc70 selectively labeled (^1H,^13 C) at Ile δ1-methyl positions in a ^2H, ^12C background. We had previously found using the Escherichia coli Hsp70, DnaK, that the δ1-methyl chemical shifts of Ile 401 and 438, which contact the central residue of the bound peptide (anchor residue, Fig. 5C), change markedly depending on the identity of the bound anchor residue and the orientation of the peptide backbone with respect to DnaK ([38]). In Hsc70, the side chains of Ile 403 and 440 are similarly arranged with respect to the anchor residue of the bound peptide as Ile 401 and 438 are in DnaK (Fig. 5C) allowing us to use their δ1-methyl chemical shifts to assess directly how the chaperone binds to SNAP-25 peptides SNNP and SNCP. We confirmed the assignment of Ile 403 and Ile 440 chemical shifts by mutating these residues to Leu and collecting methyl-TROSY NMR spectra. The Hsp70 SBD site that binds the anchor residue (termed the 0th pocket) is most frequently occupied by Leu or Ile and less commonly by Val, Pro, or Met ([38], [39], [40], [41]). […]
NMR experiments were carried out at 25 °C on a 600 MHz Bruker Avance III spectrometer equipped with a CryoProbe. Data were processed with NMRPipe and analyzed using ccpNMR Analysis. […]

T1 sequence (P11142 whole entry): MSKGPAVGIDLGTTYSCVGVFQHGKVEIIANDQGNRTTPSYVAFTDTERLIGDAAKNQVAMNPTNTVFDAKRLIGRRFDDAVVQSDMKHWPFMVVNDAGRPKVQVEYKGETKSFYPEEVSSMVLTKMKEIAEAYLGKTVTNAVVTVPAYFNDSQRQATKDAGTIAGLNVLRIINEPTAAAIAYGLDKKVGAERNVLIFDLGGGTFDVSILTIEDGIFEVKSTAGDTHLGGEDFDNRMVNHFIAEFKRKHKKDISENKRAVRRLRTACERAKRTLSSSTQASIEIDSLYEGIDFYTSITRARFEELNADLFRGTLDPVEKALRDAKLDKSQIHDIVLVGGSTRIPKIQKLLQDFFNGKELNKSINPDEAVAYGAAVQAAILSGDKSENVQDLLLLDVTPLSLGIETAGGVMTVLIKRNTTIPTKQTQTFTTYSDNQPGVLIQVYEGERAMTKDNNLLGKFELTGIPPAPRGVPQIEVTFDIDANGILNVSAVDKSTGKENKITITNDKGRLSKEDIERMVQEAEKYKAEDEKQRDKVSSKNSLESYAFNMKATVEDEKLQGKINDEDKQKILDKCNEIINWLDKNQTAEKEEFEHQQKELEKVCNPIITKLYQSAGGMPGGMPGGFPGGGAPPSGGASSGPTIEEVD

Sequence | ATPase rate of Hsc70 upon addition of peptide [1] | Ile 403 and 440 δ1-methyl signals on complex formation [2] | Ile 440 chemical shift splitting (binding modes) [2] | Ile 440 and 403 δ1-methyl chemical shift splitting (binding modes) [2]
EREQMAISGGFIRR [SNCP, peptide … from the LOOP-SNC domain of SNAP-25] | 0.080 ± 0.005 | indeed shift upon complex formation | split into two signals | –
RRMLQLVEESK [SNNP, peptide … from the SNN domain of SNAP-25] | 0.089 ± 0.008 | indeed shift upon complex formation | – | split into two resonances each

From PMC11697113, “The Hsc70 system maintains the synaptic SNARE protein SNAP-25 in an assembly-competent state and delays its aggregation [drawing 1]” (The Journal of Biological Chemistry, 2024)
